Results from article PMC12781162, “Human Protein Z as the Second Known Heme‐Binding Protein from the Endogenous Blood Coagulation Inhibitor System” (Chembiochem, 2025).
“And” between values parts separate entries of the source, which are not always exact repeats. Equal entries are not always repeated.

Experiments:
[1] = molecular target: coagulation factor VIII (FVIII); design: method as in PMID 3105105, PMID 22471307, PMID 38631156; details: read-out: K D (heme binding to FVIII); cited from earlier work
PZ = molecular target: T1, PZ (Homo sapiens, UniProt P22891); test: Thrombin-inhibiting activity of PZ in the presence of heme (chromogenic assay); format: biochemical; details: PZ 10 nM, thrombin 30 nM, 30 min preincubation of PZ with heme; read-out: EC50 (increase of inhibitory activity of PZ against thrombin by heme)
T1 construct: purchased CellSystems GmbH HCPZ-0220 (PZ); HCXA-0060 (FXa)
T1 sequence (P22891 41-400): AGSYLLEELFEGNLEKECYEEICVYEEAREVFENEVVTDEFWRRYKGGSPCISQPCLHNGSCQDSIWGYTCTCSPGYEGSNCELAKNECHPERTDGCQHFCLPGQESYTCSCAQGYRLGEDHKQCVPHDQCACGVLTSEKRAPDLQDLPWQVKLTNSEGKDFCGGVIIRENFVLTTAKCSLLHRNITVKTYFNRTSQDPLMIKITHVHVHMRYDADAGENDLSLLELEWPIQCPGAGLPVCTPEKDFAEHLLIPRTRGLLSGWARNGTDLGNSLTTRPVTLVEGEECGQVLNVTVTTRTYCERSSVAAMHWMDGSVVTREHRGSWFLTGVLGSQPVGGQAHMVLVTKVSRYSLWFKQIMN
Protocol: Herein, an earlier established chromogenic thrombin amidolytic activity assay system was thus used, inspired by Hogg and Stenflo.^[ [19] ^, [28] ^] PZ (final concentration: 10 nM) was first incubated for 30 min with different heme concentrations (final concentrations: 1–1000 nM). […] Finally, 5 µL of the substrate solution (H‐D‐Phe‐Pip‐Arg‐pNA x 2 HCl (S‐2238); final concentration: 273 µM) was added. Immediately, kinetic measurements at 405 nm were started, using an Infinite 200 Pro spectrophotometer. Heme only, thrombin only, and PZ‐heme only served as controls. For evaluation, the thrombin activity was determined as the change of absorbance per second and always normalized against the basal thrombin activity without PZ. Data were analyzed as the mean of triplicate and the IC50 was calculated by nonlinear regression (GraphPad Prism, version 10.5.0).

fibrinogen = molecular target: fibrinogen; design: method as in PMID 29322134, PMID 27229173; details: read-out: K D (heme binding to fibrinogen); cited from earlier work
[2] = molecular target: activated protein C (APC); design: method as in PMID 32705892; details: read-out: K D (heme binding to APC); cited from earlier work

**Q.** Which Kd [1] does the source give for Hemin [heme] here?
**A.** Its Kd is 2 to 13 nM.

**Q.** What about the EC50 (PZ) of the same substance?
**A.** The EC50 was 12.7 ± 6.36 nM.

**Q.** What about the Kd (fibrinogen) of the same substance?
**A.** The Kd was ~3000 nM and ~3300 nM.

**Q.** And the Kd [2]?
**A.** The Kd was ~400 nM.
